Earlier results, collected in patent US10815228B2, “Aztreonam derivatives and uses thereof” (ARIXA PHARMACEUTICALS, INC., priority 2017, dated 2020).

oral bioavailability (aztreonam, statement in words): poor oral bioavailability
oral bioavailability of aztreonam (orally administered aztreonam): less than 1%
Structure (SMILES): C[C@H]1[C@H](NC(=O)/C(=N/OC(C)(C)C(=O)O)c2csc(N)n2)C(=O)N1S(=O)(=O)O [aztreonam, (2-((((E)-1-(2-aminothiazol-4-yl)-2-(((2S,3S)-2-methyl-4-oxo-1-sulfoazetidin-3-yl)amino)-2-oxoethylidene)amino)oxy)-2-methylpropanoic acid)]
